Data published in PubChem BioAssay AID330 (DTP/NCI, 2004).
“And” between values parts separate entries of the source, which are not always exact repeats. Equal values may be shown once. Toxic doses and inconclusive results are not listed.

Test system: P388 leukemia ip, CD2F1 mice, survival T/C
Test: NCI In Vivo Anticancer Drug Screen. Data for tumor model P388 Leukemia (intraperitoneal) in CD2F1 (CDF1) mice
Details: endpoint: median survival time, higher = longer survival
Outline: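 Mice carrying the transplanted tumor received test compound or vehicle. Survival was recorded in each group, and the value is the treated-group measurement divided by that of the vehicle-treated control group.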

[1] = dose: 50.0 mg/kg/injection, schedule: Q01DX009 (ip), vehicle: saline with Tween-80
[2] = dose: 100.0 mg/kg/injection, schedule: Q01DX009 (ip), vehicle: saline with Tween-80
[3] = dose: 200.0 mg/kg/injection, schedule: Q01DX009 (ip), vehicle: saline with Tween-80
[4] = dose: 12.5 mg/kg/injection, schedule: Q01DX009 (ip), vehicle: water
[5] = dose: 25.0 mg/kg/injection, schedule: Q01DX009 (ip), vehicle: water

**Q.** With `Cc1[nH]c(-c2ccccc2)c2[nH]c(=O)n(-c3ccccc3)c(=O)c12` as the molecule, how does the T/C (dose: 100.0 mg/kg/injection, schedule: Q04DX003 (ip), vehicle: Klucel (hydroxypropylcellulose) (HPC)) read?
**A.** 93 % of control

**Q.** What about the T/C (dose: 200.0 mg/kg/injection, schedule: Q04DX003 (ip), vehicle: Klucel (hydroxypropylcellulose) (HPC)) of the same molecule?
**A.** 98 % of control

**Q.** And the T/C (dose: 400.0 mg/kg/injection, schedule: Q04DX003 (ip), vehicle: Klucel (hydroxypropylcellulose) (HPC))?
**A.** 93 % of control

**Q.** Which results are given for `COc1ccc(/C(O)=C/c2nc3ccc([N+](=O)[O-])cc3[nH]c2=O)cc1`?
**A.** T/C (dose: 60.0 mg/kg/injection, schedule: Q01DX005 (ip), vehicle: Klucel + Tween-80): 97 % of control; T/C (dose: 120.0 mg/kg/injection, schedule: Q01DX005 (ip), vehicle: Klucel + Tween-80): 94 % of control; T/C (dose: 240.0 mg/kg/injection, schedule: Q01DX005 (ip), vehicle: Klucel + Tween-80): 95 % of control

**Q.** How did the T/C (dose: 50.0 mg/kg/injection, schedule: Q01DX005 (ip), vehicle: Klucel (hydroxypropylcellulose) (HPC)) turn out when `O=C1OC(c2ccccc2)=N/C1=C/c1c(-c2ccccc2)c(-c2ccccc2)c2n1CCC2` was run?
**A.** 86 % of control

**Q.** And the T/C (dose: 100.0 mg/kg/injection, schedule: Q01DX005 (ip), vehicle: Klucel (hydroxypropylcellulose) (HPC))?
**A.** 86 % of control

**Q.** What about the T/C (dose: 200.0 mg/kg/injection, schedule: Q01DX005 (ip), vehicle: Klucel (hydroxypropylcellulose) (HPC)) of the same molecule?
**A.** 86 % of control

**Q.** Which T/C (dose: 25.0 mg/kg/injection, schedule: Q01DX009 (ip), vehicle: Klucel (hydroxypropylcellulose) (HPC)) does the source give for `N=C(N)SCc1ccc([N+](=O)[O-])cc1` here?
**A.** 102 % of control

**Q.** What about the T/C (dose: 50.0 mg/kg/injection, schedule: Q01DX009 (ip), vehicle: Klucel (hydroxypropylcellulose) (HPC)) of the same molecule?
**A.** 107 % of control

**Q.** For `Nc1ccc(-c2c[nH]c(=O)c([N+](=O)[O-])c2)cc1`, which T/C [1] is on record?
**A.** 99 % of control

**Q.** And the T/C [2]?
**A.** 99 % of control

**Q.** What about the T/C [3] of the same molecule?
**A.** 100 % of control

**Q.** Which T/C (dose: 50.0 mg/kg/injection, schedule: Q01DX005 (ip), vehicle: saline with Tween-80) does the source give for `CCN(CC)CCN(C(=O)OCCOC(=O)N(CCN(CC)CC)c1cccc2sc3ccccc3c(=O)c12)c1cccc2sc3ccccc3c(=O)c12` here?
**A.** 99 % of control

**Q.** What about the T/C (dose: 100.0 mg/kg/injection, schedule: Q01DX005 (ip), vehicle: saline with Tween-80) of the same molecule?
**A.** 106 % of control

**Q.** What about the T/C (dose: 200.0 mg/kg/injection, schedule: Q01DX005 (ip), vehicle: saline with Tween-80) of the same molecule?
**A.** 105 % of control

**Q.** Which results are given for `Nc1ccc(S(N)(=O)=O)cc1`?
**A.** T/C (dose: 12.5 mg/kg/injection, schedule: Q01DX009 (ip), vehicle: saline with Tween-80): 105 % of control and 112 % of control; T/C (dose: 150.0 mg/kg/injection, schedule: Q01DX009 (ip), vehicle: saline with Tween-80): 108 % of control and 97 % of control; T/C [3]: 101 % of control and 89 % of control; T/C (dose: 400.0 mg/kg/injection, schedule: Q01DX009 (ip), vehicle: saline with Tween-80): 98 % of control and 100 % of control

**Q.** `C=C1C(=O)OC2C1CCC1(C)CC(Br)C(=O)C(C)C21` (stereo not given) was tested. Which T/C (dose: 50.0 mg/kg/injection, schedule: Q04DX002 (ip), vehicle: saline with Tween-80) did it give?
**A.** 104 % of control and 108 % of control and 95 % of control

**Q.** And the T/C (dose: 100.0 mg/kg/injection, schedule: Q04DX002 (ip), vehicle: saline with Tween-80)?
**A.** 100 % of control and 111 % of control and 112 % of control

**Q.** And the T/C (dose: 200.0 mg/kg/injection, schedule: Q04DX002 (ip), vehicle: saline with Tween-80)?
**A.** 106 % of control and 108 % of control

**Q.** And the T/C (dose: 400.0 mg/kg/injection, schedule: Q04DX002 (ip), vehicle: saline with Tween-80)?
**A.** 104 % of control

**Q.** `O=C(/C=C\c1ccc(O)c(O)c1)O[C@@H]1C[C@](O)(C(=O)O)C[C@@H](O)[C@H]1O` was tested. Which T/C (dose: 50.0 mg/kg/injection, schedule: Q04DX003 (ip), vehicle: saline) did it give?
**A.** 100 % of control

**Q.** And the T/C (dose: 100.0 mg/kg/injection, schedule: Q04DX003 (ip), vehicle: saline)?
**A.** 100 % of control

**Q.** And the T/C (dose: 200.0 mg/kg/injection, schedule: Q04DX003 (ip), vehicle: saline)?
**A.** 105 % of control

**Q.** For `CC(C)(C)N=C(CCN1CCCCC1)Nc1ccccc1Cl`, which T/C [1] is on record?
**A.** 116 % of control

**Q.** And the T/C [2]?
**A.** 106 % of control

**Q.** And the T/C [3]?
**A.** 102 % of control

**Q.** `CN(CCCCN(C)CCOS(C)(=O)=O)CCOS(C)(=O)=O` was tested. Which T/C (dose: 0.05 mg/kg/injection, schedule: Q01DX009 (ip), vehicle: saline) did it give?
**A.** 157 % of control

**Q.** What about the T/C (dose: 0.1 mg/kg/injection, schedule: Q01DX009 (ip), vehicle: saline) of the same molecule?
**A.** 178 % of control

**Q.** What about the T/C (dose: 0.3 mg/kg/injection, schedule: Q01DX009 (ip), vehicle: saline) of the same molecule?
**A.** 156 % of control

**Q.** What about the T/C (dose: 0.6 mg/kg/injection, schedule: Q01DX009 (ip), vehicle: saline) of the same molecule?
**A.** 156 % of control

**Q.** What about the T/C (dose: 0.8 mg/kg/injection, schedule: Q04DX003 (ip), vehicle: saline) of the same molecule?
**A.** 168 % of control

**Q.** What about the T/C (dose: 1.2 mg/kg/injection, schedule: Q04DX003 (ip), vehicle: saline) of the same molecule?
**A.** 172 % of control

**Q.** What about the T/C (dose: 1.25 mg/kg/injection, schedule: Q01DX009 (ip), vehicle: saline) of the same molecule?
**A.** 230 % of control

**Q.** And the T/C (dose: 1.25 mg/kg/injection, schedule: Q04DX003 (ip), vehicle: saline with Tween-80)?
**A.** 180 % of control

**Q.** What about the T/C (dose: 1.8 mg/kg/injection, schedule: Q04DX003 (ip), vehicle: saline) of the same molecule?
**A.** 181 % of control

**Q.** What about the T/C (dose: 2.5 mg/kg/injection, schedule: Q04DX003 (ip), vehicle: saline with Tween-80) of the same molecule?
**A.** 176 % of control

**Q.** What about the T/C (dose: 5.0 mg/kg/injection, schedule: Q04DX003 (ip), vehicle: saline with Tween-80) of the same molecule?
**A.** 200 % of control

**Q.** And the T/C (dose: 5.0 mg/kg/injection, schedule: Q04DX003 (ip), vehicle: saline)?
**A.** 204 % of control

**Q.** What about the T/C (dose: 10.0 mg/kg/injection, schedule: Q04DX003 (ip), vehicle: saline) of the same molecule?
**A.** 86 % of control

**Q.** `COc1ccc2c(c1)-c1nn(CCCN(C)C)c3ccc([N+](=O)[O-])c(c13)N2` was tested. Which T/C (dose: 4.5 mg/kg/injection, schedule: Q01DX005 (ip), vehicle: water) did it give?
**A.** 169 % of control

**Q.** And the T/C (dose: 6.25 mg/kg/injection, schedule: Q01DX005 (ip), vehicle: water)?
**A.** 189 % of control

**Q.** What about the T/C (dose: 7.5 mg/kg/injection, schedule: Q01DX005 (ip), vehicle: water) of the same molecule?
**A.** 181 % of control

**Q.** And the T/C (dose: 12.5 mg/kg/injection, schedule: Q01DX005 (ip), vehicle: water)?
**A.** 213 % of control and 216 % of control and 227 % of control

**Q.** What about the T/C (dose: 21.0 mg/kg/injection, schedule: Q01DX005 (ip), vehicle: water) of the same molecule?
**A.** 253 % of control

**Q.** What about the T/C (dose: 25.0 mg/kg/injection, schedule: Q01DX005 (ip), vehicle: water) of the same molecule?
**A.** 261 % of control

**Q.** What about the T/C (dose: 35.0 mg/kg/injection, schedule: Q01DX005 (ip), vehicle: water) of the same molecule?
**A.** 290 % of control

**Q.** What does the source list for `CN1CCN(C)C(N2CCOCC2)C(C)(C)C1` (stereo not given)?
**A.** T/C (dose: 50.0 mg/kg/injection, schedule: Q01DX005 (ip), vehicle: saline): 93 % of control; T/C (dose: 100.0 mg/kg/injection, schedule: Q01DX005 (ip), vehicle: saline): 94 % of control; T/C (dose: 200.0 mg/kg/injection, schedule: Q01DX005 (ip), vehicle: saline): 95 % of control

**Q.** What does the source list for `CCn1c(=O)c(Cl)c2n(C)c3ccccc3n2c1=O`?
**A.** T/C (dose: 60.0 mg/kg/injection, schedule: Q01DX005 (ip), vehicle: saline with Tween-80): 97 % of control; T/C (dose: 120.0 mg/kg/injection, schedule: Q01DX005 (ip), vehicle: saline with Tween-80): 95 % of control; T/C (dose: 240.0 mg/kg/injection, schedule: Q01DX005 (ip), vehicle: saline with Tween-80): 94 % of control

**Q.** Which T/C [4] does the source give for `COc1cc2ccc3cnccc3c2cc1OC` here?
**A.** 99 % of control

**Q.** What about the T/C [5] of the same molecule?
**A.** 99 % of control

**Q.** And the T/C (dose: 50.0 mg/kg/injection, schedule: Q01DX009 (ip), vehicle: water)?
**A.** 103 % of control

**Q.** And the T/C (dose: 100.0 mg/kg/injection, schedule: Q01DX009 (ip), vehicle: water)?
**A.** 99 % of control

**Q.** And the T/C (dose: 200.0 mg/kg/injection, schedule: Q01DX009 (ip), vehicle: water)?
**A.** 113 % of control

**Q.** Which results are given for `O=C(N=Cc1ccco1)C(=O)Nc1ccc(Cl)c([N+](=O)[O-])c1`?
**A.** T/C [1]: 100 % of control; T/C [2]: 91 % of control; T/C [3]: 96 % of control

**Q.** What does the source list for `COc1ccc2cc3cc[n+](C)cc3cc2c1OC`?
**A.** T/C [4]: 114 % of control; T/C [5]: 119 % of control

**Q.** What does the source list for `CCCC(OC(C)=O)c1coc(C)c1` (stereo not given)?
**A.** T/C (dose: 100.0 mg/kg/injection, schedule: Q01DX001 (ip), vehicle: saline): 104 % of control; T/C (dose: 200.0 mg/kg/injection, schedule: Q01DX001 (ip), vehicle: saline): 100 % of control; T/C (dose: 400.0 mg/kg/injection, schedule: Q01DX001 (ip), vehicle: saline): 104 % of control
